Key:
[1] = biological target: 11b-HSD1 (Homo sapiens, UniProt P28845); experiment: Enzymatic assay, 11b-HSD1 dependent conversion of cortisone into cortisol (reductase activity); type: biochemical; conditions: recombinant protein, 2 μM cortisone, 45 min at 37 C; read-out: [C1] HSD1-prot Reduct Score
How it was run: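 Recombinant human 11b-HSD1 (11 µg) with 2 µM cortisone and 180 µM NADPH in 30 mM Tris-HCl pH 7.2, 1 mM EDTA, incubated 45 min at 37 °C. Cortisol formation was measured by HPLC with a corticosterone internal standard. Compounds were tested from 10^−5 M to 3.10^−9 M, and pIC50 was scored as 1 (<5), 2 (5–6) or 3 (>6).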

[2] = biological target: T1, 11b-HSD2 (Homo sapiens, UniProt P80365); experiment: Enzymatic assay, 11b-HSD2 dependent dehydrogenase activity; type: biochemical; conditions: recombinant protein, 100 nM cortisol, 45 min at 37 C; read-out: [C1] HSD2 prot Dehydro Score
T1 sequence (P80365 1-405): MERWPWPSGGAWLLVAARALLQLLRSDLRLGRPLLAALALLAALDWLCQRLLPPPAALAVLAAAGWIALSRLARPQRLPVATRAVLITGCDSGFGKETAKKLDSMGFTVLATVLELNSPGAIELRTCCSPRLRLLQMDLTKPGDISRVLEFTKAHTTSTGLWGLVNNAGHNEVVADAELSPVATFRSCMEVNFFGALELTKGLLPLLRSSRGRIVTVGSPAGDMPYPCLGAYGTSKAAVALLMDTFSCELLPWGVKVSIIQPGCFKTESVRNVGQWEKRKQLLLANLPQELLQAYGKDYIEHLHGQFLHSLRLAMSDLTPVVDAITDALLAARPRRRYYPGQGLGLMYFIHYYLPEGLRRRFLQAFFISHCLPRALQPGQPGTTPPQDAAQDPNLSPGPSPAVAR
Experimental: The effects on the 11b-HSD2 dependent dehydrogenase activity was studied in a reaction mixture containing 0.1M sodium phosphate buffer pH 7.5, 300 μM NAD, 100 nM cortisol (of which 2 nM is 3H-radio labelled), 1 μl drug and/or solvent and 2.5 μg recombinant protein in a final volume of 100 μl.
All incubations were performed for 45 min at 37 C in a water bath. The reaction was stopped by adding 100 μl acetonitrile containing 20 μg corticosterone as internal standard. After centrifugation, the product formation was analysed in the supernatant by HPLC on a Hypersyl BDS-C18 column using 0.05 mM ammonium acetate/methanol (50/50) as solvent. In all of the aforementioned assays, the drugs to be tested were taken from a stock solution and tested at a final concentration ranging from […] to 3.10^−9M. From the thus obtained dose response curves, the pIC50 value was calculated and scored as follows; Score 1=pIC50 value<5, Score 2=pIC50 value in the range of 5 to 6, Score 3=pIC50 value>6. (in this table NT stands for Not Tested).

[3] = biological target: T2, 11b-HSD1 (Mus musculus, UniProt P50172); experiment: Cellular assay, 11b-HSD1 activity in differentiated 3T3-L1 cells; type: cell-based; conditions: 4 hour pre-incubation, read-out: [C2] HSD1 cellular 3T3-L1 Score
T2 construct: Fibroblasts were differentiated into adipocytes; endogenous in cells; host or cells: differentiated 3T3-L1 cells (ATCC-CL-173)
How it was run: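 Differentiated mouse 3T3-L1 adipocytes pre-incubated 4 hours with compound (final 3.10^−9 to 10^−5 M), then 0.5 μCi ³H-cortisone or dehydrocorticosterone added for one hour. Medium extracted with diethyl ether and steroids resolved by HPLC; pIC50 from dose-response curves, reported as scores.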

[4] = biological target: T1, 11b-HSD2; experiment: Cellular assay, 11b-HSD2 activity in HepG2 cells; type: cell-based; parameters: endogenous in cells; host or cells: HepG2 (ATCC HB-8065); conditions: 4 hour pre-incubation, read-out: [C2] HSD2 cellular HepG2 Score
Experimental: The effects on 11b-HSD2 activity was studied in HepG2 and LCC-PK1-cells HepG2-cells (ATCC HB-8065) were seeded in 12 well plates at a density of 100,000 cells/ml and grown at 37 C in a humidified 5% CO2 atmosphere in MEM-Rega-3 medium supplemented with 10% heat inactivated foetal calf serum, 2 mM L-glutamine and sodium bicarbonate). Medium was refreshed twice a week.
Following a 4 hour pre-incubation with test compound, 0.5 μCi ^3H-cortisol or corticosterone, was added to the cultures. One hour later, the medium was extracted on Extrelut^3-columns with 15 ml diethyl ether and the extract was analysed by HPLC as described above.
As for the enzymatic assays, the compounds to be tested were taken from a stock solution and tested at a final concentration ranging from […] to 3.10^−9M. From the thus obtained dose response curves, the pIC50 value was calculated and scored as follows; Score 1=pIC50 value<5, Score 2=pIC50 value in the range of 5 to 6, Score 3=pIC50 value>6. Some of the thus obtained results are summarized in the table below (in this table NT stands for Not Tested).

T2 sequence (P50172 whole entry): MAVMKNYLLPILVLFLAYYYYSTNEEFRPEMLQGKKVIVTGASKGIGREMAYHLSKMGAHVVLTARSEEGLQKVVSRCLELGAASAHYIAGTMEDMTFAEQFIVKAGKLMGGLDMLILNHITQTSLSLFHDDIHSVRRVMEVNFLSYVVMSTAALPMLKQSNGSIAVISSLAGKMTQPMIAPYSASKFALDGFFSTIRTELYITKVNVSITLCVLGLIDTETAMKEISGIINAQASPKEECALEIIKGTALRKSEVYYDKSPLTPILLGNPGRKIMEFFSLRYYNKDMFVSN
Chain of 11b-HSD1 (Homo sapiens, UniProt P28845) (P28845 whole entry): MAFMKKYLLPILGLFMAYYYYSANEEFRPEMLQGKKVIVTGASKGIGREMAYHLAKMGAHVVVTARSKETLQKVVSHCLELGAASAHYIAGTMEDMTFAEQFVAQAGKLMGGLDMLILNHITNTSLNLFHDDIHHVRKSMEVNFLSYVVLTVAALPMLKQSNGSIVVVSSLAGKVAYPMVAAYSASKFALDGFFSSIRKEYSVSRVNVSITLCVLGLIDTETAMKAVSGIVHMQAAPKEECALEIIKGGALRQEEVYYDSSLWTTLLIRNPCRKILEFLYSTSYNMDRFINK

Compound: C[C@@H](c1ccccc1)N1CC[C@@H](Cc2c(Cl)cccc2Cl)C1=O [Compound 14]
- IC50 [1]: < 1 µM
- IC50 [2]: > 10 µM
- IC50 [3]: < 1 µM
- melting point: 75 to 76 °C
- IC50 [4]: > 10 µM

Compound: C[C@H](c1ccccc1)N1CC[C@H](Cc2c(Cl)cccc2Cl)C1=O [Compound 45]
- IC50 [1]: < 1 µM
- IC50 [2]: > 10 µM
- IC50 [3]: < 1 µM
- IC50 [4]: > 10 µM

Compound: O=C1C(Cc2cccc(Cl)c2Cl)CCN1CCc1ccccc1 (stereo not shown) [Compound 31]
- IC50 [1]: 1 to 10 µM
- IC50 [2]: > 10 µM
- IC50 [3]: < 1 µM
- IC50 [4]: > 10 µM

Compound: C[C@@H](c1ccccc1)N1CC[C@H](Cc2c(Cl)cccc2Cl)C1=O [Compound 13]
- IC50 [1]: < 1 µM
- IC50 [2]: > 10 µM
- IC50 [3]: < 1 µM
- IC50 [4]: > 10 µM

Compound: C[C@@H](c1ccccc1)N1CC[C@H](Cc2ccccc2Cl)C1=O [Compound 9]
- IC50 [1]: 1 to 10 µM
- IC50 [2]: > 10 µM
- IC50 [3]: < 1 µM
- IC50 [4]: > 10 µM

Compound: Cc1ccccc1C(C)[C@H]1CCN([C@@H](C)c2ccccc2)C1=O (stereo partly shown) [Compound 163]
- IC50 [1]: < 1 µM
- IC50 [2]: 1 to 10 µM
- IC50 [3]: < 1 µM
- IC50 [4]: > 10 µM

Compound: O=C1C(Cc2c(Cl)cccc2Cl)CCN1CCc1ccccc1 (stereo not shown) [Compound 32]
- IC50 [1]: < 1 µM
- IC50 [2]: > 10 µM
- IC50 [3]: < 1 µM
- IC50 [4]: > 10 µM

Compound: Cc1ccc(CC2CCN(CCc3ccccc3)C2=O)cc1 (stereo not shown) [Compound 35]
- IC50 [1]: > 10 µM
- IC50 [2]: > 10 µM
- IC50 [3]: < 1 µM
- IC50 [4]: > 10 µM

Compound: O=C1C(Cc2ccccc2Cl)CCN1Cc1ccccc1 (stereo not shown) [Compound 57]
- IC50 [1]: 1 to 10 µM
- IC50 [2]: > 10 µM
- IC50 [3]: < 1 µM
- IC50 [4]: > 10 µM

Compound: Cc1ccccc1CC1CCN(CCc2ccccc2)C1=O (stereo not shown) [Compound 28]
- IC50 [1]: > 10 µM
- IC50 [2]: > 10 µM
- IC50 [3]: < 1 µM
- IC50 [4]: > 10 µM

Compound: Cc1ccccc1C[C@@H]1CCN([C@@H](C)c2ccccc2)C1=O [Compound 1]
- IC50 [1]: < 1 µM
- IC50 [2]: > 10 µM
- IC50 [3]: < 1 µM
- IC50 [4]: > 10 µM

Compound: COc1ccccc1C[C@H]1CCN([C@@H](C)c2ccccc2)C1=O [Compound 7]
- IC50 [1]: 1 to 10 µM
- IC50 [2]: > 10 µM
- IC50 [3]: < 1 µM
- IC50 [4]: > 10 µM

From patent publication US9776965B2, “Pyrrolidin-2-one and piperidin-2-one derivatives as 11-beta hydroxysteroid dehydrogenase inhibitors” (Janssen Pharmaceutica N.V., priority 2004, dated 2017)
